Columns and labels:
P-gp (MDR1) = target: T1, P-gp (MDR1) (Homo sapiens, UniProt P08183); experiment: Efflux in MDCK-MDR1 cell line; assay type: in vitro ADME; details: human; for recovery at 1 h, 1 μM: MDCK-MDR1, MDCK-MDR1, 1 μM
T1 construct: expressed in transfected cells; host or cells: MDCK (Madin-Darby canine kidney) cells, MDCK-MDR1
Method: (§1) The permeability of Compound 1 was evaluated using both Caco-2 and MadinDarby canine kidney (MDCK) wild-type cell lines. Cells were exposed to drug in buffer on the apical side (measuring permeability in the A-to-B direction) or basolateral side (measuring permeability in the B-to-A direction) and incubated at 37° C. for one hour. Permeability was high in the A-to-B direction in both the MDCK and Caco-2 cell lines (33 and 18×10^−6 cm/sec, respectively).
(§2) An assessment of whether Compound 1 is a substrate of efflux transporters was conducted by using the MDCK cell line that is overexpressed with human P-gp (MDR).

human P-gp (MDR) = target: T2, human P-gp (MDR) (Homo sapiens, UniProt P08183); experiment: Efflux in MDCK-MDR1 cell line; assay type: in vitro ADME; details: MDCK overexpressing human P-gp, in words
T2 construct: expressed in transfected cells; host or cells: MDCK (Madin-Darby canine kidney) cells, MDCK-MDR1
Method: as §1, §2

CYP3A4 = CYP3A4 Induction in Human Hepatocytes; assay type: in vitro ADME
Method: CYP activity was determined by monitoring metabolite formation of specific CYP probe substrates (phenacetin for CYP1A2 and testosterone for CYP3A4) using LC-MS/MS. CYP messenger ribonucleic acid (mRNA) was analyzed by RT-PCR to confirm CYP induction potential.

Caco-2 = experiment: Permeability in Caco-2 cell line; assay type: in vitro ADME; details: Caco-2, 5 μM, A > B
Method: as §1

[1] = Permeability in Caco-2 cell line; assay type: in vitro ADME; details: human
Method: as §1

[2] = system: collagen-induced arthritis (CIA); experiment: therapeutic mouse collagen-induced arthritis (CIA) model; assay type: in vivo; parameters: Histopathology Summed Score, Knees / Therapeutic Paw Score AUC / Histopathology Summed Score, Six Joints / Histopathology Summed Score, Paws: scale not given here; details: for All Paw Score AUC / Histopathology Summed Score, Knees / Histopathology Summed Score, Paws / Histopathology Summed Score, Six Joints / Prophylactic Paw Score AUC / Therapeutic Paw Score AUC: 10 days; for Arthritis scores measured daily, all paws (FIG. 1): *d2-11, vs vehicle
Method: Compound 1 was tested in the therapeutic mouse collagen-induced arthritis (CIA) model at 2.5 mg/kg BID (5 mg/kg/day), 5 mg/kg BID (10 mg/kg/day) or 10 mg/kg BID (20 mg/kg/day). Fostamatinib, a Syk small molecule inhibitor used as a reference standard, was dosed orally at 30 mg/kg BID (60 mg/kg/day). Compounds were dosed for 10 days in a 12/12-hour BID dosing regimen until the end of the study. Compound 1 was formulated in 0.2% MC, 1% SLS. Dosing volume was 10 mL/kg. Terminal plasma samples were collected at 2, 4 and 12 hours post last dose. All four paws and both knees were collected and processed for histopathology.

[3] = Tissue drug concentrations in CD40-induced IBD model; assay type: in vivo, mouse; details: 7 days, 2 h after last dose; for Kp at 2 h / concentration at 2 h: Rag1 knock-out (Rag 1−/−), mouse, intraperitoneal; for Kp at 2 h: colon (relative to plasma); for concentration at 2 h: plasma
Method: The PI3Kγ inhibitor, Compound 1, was tested in a CD40 induced colitis model to determine its effect on disease course. The CD40 model of IBD is induced by injecting an anti-CD40 monoclonal antibody (agonist, i.e., activating antibody versus neutralizing antibody) into T and B cell deficient mice (Rag 1−/− mice) to induce both systemic and intestinal inflammation that leads to colitis and wasting disease via the innate immune pathway. (See, e.g., Immunity 25, 309-318, August 2006). Briefly, Rag1 knock-out mice were injected IP with the anti-CD40 monoclonal antibody FGK45. Starting on Day 0, mice were treated with PBS, vehicle or Compound 1 at 5 mg/kg b.i.d. or 10 mg/kg b.i.d. Compound 1 was administered IP for 7 days on a 10/14-hour b.i.d. dosing regimen. Compound 1 was formulated in 5% NMP/15% PEG-400/80% in a 0.5% HPMC-E50 solution in water. At study termination, serum and colon samples were collected at 2 hours following the last dose for drug concentration analysis. Body weights were measured daily during the study. Compound 1 concentrations were analyzed in the plasma samples collected 2 hours following the final dose at study termination. Concentrations were determined using a high performance liquid chromatography/tandem mass spectrometry (HPLC/MS/MS) method.

T1 sequence (P08183 whole entry): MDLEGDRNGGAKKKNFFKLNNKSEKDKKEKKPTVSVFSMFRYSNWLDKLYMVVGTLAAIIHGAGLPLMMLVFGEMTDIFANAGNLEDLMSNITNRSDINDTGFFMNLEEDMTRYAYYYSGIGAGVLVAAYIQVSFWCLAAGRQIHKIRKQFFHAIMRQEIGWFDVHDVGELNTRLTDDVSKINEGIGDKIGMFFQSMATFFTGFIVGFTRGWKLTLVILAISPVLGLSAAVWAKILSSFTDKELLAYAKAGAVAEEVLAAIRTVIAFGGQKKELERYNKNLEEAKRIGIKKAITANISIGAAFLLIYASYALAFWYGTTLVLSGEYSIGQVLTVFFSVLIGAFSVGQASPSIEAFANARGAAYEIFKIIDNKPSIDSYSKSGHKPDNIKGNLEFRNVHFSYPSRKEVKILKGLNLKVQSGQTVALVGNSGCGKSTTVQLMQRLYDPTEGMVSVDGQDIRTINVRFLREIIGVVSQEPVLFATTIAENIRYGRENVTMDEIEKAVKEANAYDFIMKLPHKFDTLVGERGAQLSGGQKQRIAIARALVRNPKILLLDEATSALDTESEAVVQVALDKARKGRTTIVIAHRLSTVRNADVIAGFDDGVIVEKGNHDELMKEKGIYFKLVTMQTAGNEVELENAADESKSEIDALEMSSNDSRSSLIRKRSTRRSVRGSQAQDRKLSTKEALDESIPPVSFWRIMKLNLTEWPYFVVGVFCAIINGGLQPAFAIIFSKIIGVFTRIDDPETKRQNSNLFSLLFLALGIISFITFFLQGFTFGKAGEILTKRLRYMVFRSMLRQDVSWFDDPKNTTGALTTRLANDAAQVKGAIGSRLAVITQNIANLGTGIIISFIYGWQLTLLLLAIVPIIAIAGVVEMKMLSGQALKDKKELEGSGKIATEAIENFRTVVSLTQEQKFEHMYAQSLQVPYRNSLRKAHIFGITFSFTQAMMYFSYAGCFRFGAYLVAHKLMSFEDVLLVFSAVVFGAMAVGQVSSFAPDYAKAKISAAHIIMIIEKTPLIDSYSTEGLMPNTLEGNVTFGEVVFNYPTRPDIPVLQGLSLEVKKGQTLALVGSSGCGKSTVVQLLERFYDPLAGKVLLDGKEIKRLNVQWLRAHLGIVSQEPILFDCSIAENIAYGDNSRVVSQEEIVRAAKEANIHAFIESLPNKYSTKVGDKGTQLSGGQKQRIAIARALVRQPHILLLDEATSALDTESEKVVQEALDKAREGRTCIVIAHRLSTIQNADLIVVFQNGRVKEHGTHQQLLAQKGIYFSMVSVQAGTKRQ
T2 sequence (P08183 whole entry): as above

## Cc1cc(-c2cncc([C@@H](O)C(F)(F)F)c2)nc2c1C(=O)N(c1cnn(CC(F)F)c1)C2(C)C [Compound 1, (R)-6-(1-(2,2-difluoroethyl)-1H-pyrazol-4-yl)-4,7,7-trimethyl-2-(5-(2,2,2-trifluoro-1-hydroxyethyl)pyridin-3-yl)-6,7-dihydro-5H-pyrrolo[3,4-b]pyridin-5-one]
P-gp (MDR1); A > B
  recovery at 1 h, 1 μM: 97%
P-gp (MDR1); B > A
  recovery at 1 h, 1 μM: 87%
P-gp (MDR1); MDCK-MDR1, 1 μM
  efflux ratio at 1 h, 1 μM: 35.1
P-gp (MDR1); MDCK-MDR1, 1 μM, A > B
  Papp A→B at 1 h, 1 μM: 0.98 ×10⁻⁶ cm/s
P-gp (MDR1); MDCK-MDR1, 1 μM, B > A
  Papp B→A at 1 h, 1 μM: 34.3 ×10⁻⁶ cm/s
Human P-gp (MDR)
  substrate of efflux transporters: P-gp substrate
CYP3A4; 0.5 μM, lot 8123
  CYP3A4 mRNA message: 0.4 fold change
  Testosterone-6β-Hydroxylation: 0.3 fold change
CYP3A4; 0.5 μM, lot LMP
  CYP3A4 mRNA message: 1.0 fold change
  Testosterone-6β-Hydroxylation: 0.9 fold change
CYP3A4; 0.5 μM, lot YOW
  CYP3A4 mRNA message: 1.3 fold change
  Testosterone-6β-Hydroxylation: 1.0 fold change
CYP3A4; 1.0 μM, lot 8123
  CYP3A4 mRNA message: 0.3 fold change
  Testosterone-6β-Hydroxylation: 0.5 fold change
CYP3A4; 1.0 μM, lot LMP
  CYP3A4 mRNA message: 0.7 fold change
  Testosterone-6β-Hydroxylation: 0.8 fold change
CYP3A4; 1.0 μM, lot YOW
  CYP3A4 mRNA message: 0.2 fold change
  Testosterone-6β-Hydroxylation: 0.8 fold change
CYP3A4; 5.0 μM, lot 8123
  CYP3A4 mRNA message: 0.5 fold change
  Testosterone-6β-Hydroxylation: 0.4 fold change
CYP3A4; 5.0 μM, lot LMP
  CYP3A4 mRNA message: 1.1 (1.1) fold change
  Testosterone-6β-Hydroxylation: 1.1 (1.1) fold change
CYP3A4; 5.0 μM, lot YOW
  Testosterone-6β-Hydroxylation: 0.9 (NR^1) fold change
CYP3A4; 10.0 μM, lot 8123
  CYP3A4 mRNA message: 1.1 fold change
  Testosterone-6β-Hydroxylation: 0.4 fold change
CYP3A4; 10.0 μM, lot LMP
  CYP3A4 mRNA message: 1.5 fold change
  Testosterone-6β-Hydroxylation: 1.1 fold change
CYP3A4; 10.0 μM, lot YOW
  Testosterone-6β-Hydroxylation: 0.8 (NR^1) fold change
CYP3A4; 20.0 μM, lot 8123
  CYP3A4 mRNA message: 0.7 fold change
  Testosterone-6β-Hydroxylation: 0.6 fold change
CYP3A4; 20.0 μM, lot LMP
  CYP3A4 mRNA message: 3.0 fold change
  Testosterone-6β-Hydroxylation: 1.4 fold change
CYP3A4; 20.0 μM, lot YOW
  Testosterone-6β-Hydroxylation: 0.6 (NR^1) fold change
CYP3A4; 30.0 μM, lot 8123
  Testosterone-6β-Hydroxylation: 0.7 (NR^2) fold change
CYP3A4; 30.0 μM, lot LMP
  CYP3A4 mRNA message: 2.5 fold change
  Testosterone-6β-Hydroxylation: 1.0 fold change
CYP3A4; 30.0 μM, lot YOW
  Testosterone-6β-Hydroxylation: 0.6 (NR^1) fold change
CYP3A4; all three hepatocyte lots, 48 hour exposure
  change in CYP3A4 activity and mRNA levels, % of the positive control: less than 20%
Caco-2
  Avg. Papp: 32.6 ×10⁻⁶ cm/s
[1]; Caco-2, Caco-2, 5 μM, A > B
  Papp A→B at 1 h, 5 μM: 18 ×10⁻⁶ cm/s
  recovery at 1 h, 5 μM: 87%
[1]; Caco-2, Caco-2, 5 μM, B > A
  recovery at 1 h, 5 μM: 96%
[1]; Caco-2, 5 μM
  efflux ratio at 1 h, 5 μM: 1.9
[1]; Caco-2, 5 μM, B > A
  Papp B→A at 1 h, 5 μM: 60.7 ×10⁻⁶ cm/s
[2]; 2.5 mg/kg BID
  reduction of arthritis scores AUC, prophylactic paws only: 42%
  reduction of clinical arthritis scores AUC vs vehicle, all paws: 28%
  All Paw Score AUC: *22.76
  Histopathology Summed Score, Knees: 6.83
  Histopathology Summed Score, Paws: 8.14
  Histopathology Summed Score, Six Joints: 7.70
  Prophylactic Paw Score AUC: *41.35
  Therapeutic Paw Score AUC: 49.25
  Arthritis scores measured daily, all paws (FIG. 1): significantly reduced toward normal
[2]; 2.5 mg/kg BID, *d2, 4-11
  clinical arthritis scores, prophylactic paws (FIG. 3): significantly reduced
[2]; 5 mg/kg BID
  reduction of arthritis scores AUC, prophylactic paws only: 81%
  reduction of clinical arthritis scores AUC vs vehicle, all paws: 63%
  All Paw Score AUC: *11.84
  Histopathology Summed Score, Knees: *2.53
  Histopathology Summed Score, Paws: *3.64
  Histopathology Summed Score, Six Joints: *3.27
  Prophylactic Paw Score AUC: *13.35
  Therapeutic Paw Score AUC: 34.00
  Arthritis scores measured daily, all paws (FIG. 1): significantly reduced toward normal
[2]; 5 mg/kg BID, *d2-11
  clinical arthritis scores, prophylactic paws (FIG. 3): significantly reduced
[2]; 5 mg/kg BID, *d5-11
  clinical arthritis scores, therapeutic paws (FIG. 2): significantly reduced
[2]; 10 mg/kg BID
  reduction of arthritis scores AUC, prophylactic paws only: 98%
  reduction of arthritis scores AUC, therapeutic paws only: 79%
  reduction of clinical arthritis scores AUC vs vehicle, all paws: 89%
  All Paw Score AUC: *3.34
  Histopathology Summed Score, Knees: *0.68
  Histopathology Summed Score, Paws: *0.79
  Histopathology Summed Score, Six Joints: *0.75
  Prophylactic Paw Score AUC: *1.60
  Therapeutic Paw Score AUC: *11.75
  Arthritis scores measured daily, all paws (FIG. 1): significantly reduced toward normal
[2]; 10 mg/kg BID, *d2-11
  clinical arthritis scores, prophylactic paws (FIG. 3): significantly reduced
  clinical arthritis scores, therapeutic paws (FIG. 2): significantly reduced
[3]; 5 mg/kg b.i.d. IP
  2 h Tissue Drug Concentration, Colon: 6110 ± 6350 ng/g
  Kp at 2 h: 1.5
  concentration at 2 h: 4020 ± 4520 ng/mL
[3]; 10 mg/kg b.i.d. IP
  2 h Tissue Drug Concentration, Colon: 7480 ± 9700 ng/g
  Kp at 2 h: 1.2
  concentration at 2 h: 6220 ± 6190 ng/mL

— US10301304B2, “Selective inhibitor of phosphatidylinositol 3-kinase-gamma” (VERTEX PHARMACEUTICALS INCORPORATED, priority 2013, dated 2019)
